Measurements reported in patent US20180200257A1, “METHODS FOR THE TREATMENT OF INFLAMMATORY DISORDERS” (Galapagos NV, priority 2015, published 2018).

Test system: subjects with moderately to severely active RA who have an inadequate response to methotrexate (MTX)
Assay: Study 2 (monotherapy) - Alanine Aminotransferase (ALT) levels
Assay type: in vivo, human
Conditions: 24 weeks results
Excerpt: Randomized, double-blind, placebo-controlled, multicenter, phase IIb dose finding study of Compound 1 (dosed as a [Compound 1:HCl:3H2O]) administered for 24 weeks as monotherapy to subjects with moderately to severely active rheumatoid arthritis who have an inadequate response to methotrexate alone
Double-blind, placebo-controlled, monotherapy study in subjects with moderately to severely active RA who have an inadequate response to methotrexate (MTX) (oral or parenteral).
280 subjects randomized to one of 3 doses of Compound 1 (dosed as a [Compound 1:HCl:3H2O]) or to placebo, given once daily (q.d.).
Twelve weeks of treatment with Compound 1 (dosed as a [Compound 1:HCl:3H2O]) at 50 mg, 100 mg, or 200 mg q.d.; or placebo. At Week 12, all subjects on placebo and the subjects on the 50 mg dose who have not achieved 20% improvement in swollen joint count (SJC66) and tender joint count (TJC68) will be assigned to 100 mg q.d. in a blinded fashion and will continue treatment until Week 24. Subjects in the other groups will maintain their randomized treatment until Week 24.
ALT levels determination is available at Quest Diagnostics, Clinical Trials, Quest House, 125-135 Staines Road, Hounslow, Middlesex, TW3 3JB, United Kingdom under Catalogue n#84460.
ALT catalyzes the exchange of the amino group of alanine with the oxogroup of 2-ketoglutarate to form pyruvate and glutamate. In the presence of lactic dehydrogenase, pyruvate reacts with NADH to form NAD+, measured spectrophotometrically. Guidelines for the ALT value have been issued by the association for Clinical Biochemistry and Laboratory Medicine, 130-132 Tooley Street LONDON SE1 2TU, united Kingdom, wherein the ALT value should be below 34 U/l in Female and below 52 U/L in male.
Subjects in the other groups maintained their randomized treatment until Week 24.

[1] = placebo switching to 100 mg q.d. at week 12, week 16
[2] = placebo switching to 100 mg q.d. at week 12, week 20
[3] = placebo switching to 100 mg q.d. at week 12, week 24

O=C(Nc1nc2cccc(-c3ccc(CN4CCS(=O)(=O)CC4)cc3)n2n1)C1CC1 [Compound 1, cyclopropanecarboxylic acid {5-[4-(1,1-dioxo-thiomorpholin-4-ylmethyl)-phenyl]-[1,2,4]triazolo[1,5-a]pyridin-2-yl}-amide]
Study 2 - ALT Mean CFB (50 mg q.d. responders, week 4): −3.0 IU/L | Study 2 - ALT Mean percentage CFB (50 mg q.d. responders, week 4): −5.93% | Study 2 - ALT Mean CFB (50 mg q.d. responders, week 8): −3.4 IU/L | Study 2 - ALT Mean percentage CFB (50 mg q.d. responders, week 8): 0.30% | Study 2 - ALT Mean CFB (50 mg q.d. responders, week 12): −1.6 IU/L | Study 2 - ALT Mean percentage CFB (50 mg q.d. responders, week 12): 2.63% | Study 2 - ALT Mean CFB (50 mg q.d. responders, week 16): −0.2 IU/L | Study 2 - ALT Mean percentage CFB (50 mg q.d. responders, week 16): 17.03% | Study 2 - ALT Mean CFB (50 mg q.d. responders, week 20): −0.5 IU/L | Study 2 - ALT Mean percentage CFB (50 mg q.d. responders, week 20): 8.38% | Study 2 - ALT Mean CFB (50 mg q.d. responders, week 24): −0.2 IU/L | Study 2 - ALT Mean percentage CFB (50 mg q.d. responders, week 24): 16.54% | Study 2 - ALT Mean CFB (100 mg q.d., week 1): 0.4 IU/L | Study 2 - ALT Mean percentage CFB (100 mg q.d., week 1): 13.98% | Study 2 - ALT Mean CFB (100 mg q.d., week 2): 0.7 IU/L | Study 2 - ALT Mean percentage CFB (100 mg q.d., week 2): 13.25% | Study 2 - ALT Mean CFB (100 mg q.d., week 4): 0.3 IU/L | Study 2 - ALT Mean percentage CFB (100 mg q.d., week 4): 17.82% | Study 2 - ALT Mean CFB (100 mg q.d., week 8): −0.5 IU/L | Study 2 - ALT Mean percentage CFB (100 mg q.d., week 8): 7.83% | Study 2 - ALT Mean CFB (100 mg q.d., week 12): 1.3 IU/L | Study 2 - ALT Mean percentage CFB (100 mg q.d., week 12): 14.61% | Study 2 - ALT Mean CFB (100 mg q.d., week 16): 4.1 IU/L | Study 2 - ALT Mean percentage CFB (100 mg q.d., week 16): 25.66% | Study 2 - ALT Mean CFB (100 mg q.d., week 20): 1.8 IU/L | Study 2 - ALT Mean percentage CFB (100 mg q.d., week 20): 37.63% | Study 2 - ALT Mean CFB (100 mg q.d., week 24): 0.4 IU/L | Study 2 - ALT Mean percentage CFB (100 mg q.d., week 24): 20.33% | Study 2 - ALT Mean CFB (200 mg q.d., week 1): −1.8 IU/L | Study 2 - ALT Mean percentage CFB (200 mg q.d., week 1): −0.92% | Study 2 - ALT Mean CFB (200 mg q.d., week 2): −1.1 IU/L | Study 2 - ALT Mean percentage CFB (200 mg q.d., week 2): 1.07% | Study 2 - ALT Mean CFB (200 mg q.d., week 4): −1.4 IU/L | Study 2 - ALT Mean percentage CFB (200 mg q.d., week 4): 4.71% | Study 2 - ALT Mean CFB (200 mg q.d., week 8): −0.8 IU/L | Study 2 - ALT Mean percentage CFB (200 mg q.d., week 8): 8.41% | Study 2 - ALT Mean CFB (200 mg q.d., week 12): −1.1 IU/L | Study 2 - ALT Mean percentage CFB (200 mg q.d., week 12): 5.69% | Study 2 - ALT Mean CFB (200 mg q.d., week 16): 0.4 IU/L | Study 2 - ALT Mean percentage CFB (200 mg q.d., week 16): 17.47% | Study 2 - ALT Mean CFB (200 mg q.d., week 20): −0.6 IU/L | Study 2 - ALT Mean percentage CFB (200 mg q.d., week 20): 6.69% | Study 2 - ALT Mean CFB (200 mg q.d., week 24): −1.3 IU/L | Study 2 - ALT Mean percentage CFB (200 mg q.d., week 24): 5.83% | Study 2 - ALT Mean CFB [1]: 0.4 IU/L | Study 2 - ALT Mean percentage CFB [1]: 15.03% | Study 2 - ALT Mean CFB [2]: 0.8 IU/L | Study 2 - ALT Mean percentage CFB [2]: 17.28% | Study 2 - ALT Mean CFB [3]: 0.9 IU/L | Study 2 - ALT Mean percentage CFB [3]: 18.10%
